Measurements: patent publication US20210361600A1, “METHODS FOR INDUCING CHONDROGENESIS” (THE SCRIPPS RESEARCH INSTITUTE, priority 2017, published 2021)
Entries after “also recorded” stand apart in the source; their conditions may differ.

Experiments:
[1] = system: Rat Medial Meniscal Tear Model; assay: Dose range study of compound A in a rat medial meniscal tear model; type: in vivo, Lewis rats
Description: The vehicle was prepared separately and then added to aliquots of compound A powder, after which the mixture was vortexed and becomes a clear solution. Dosing solutions were prepared for doses ranging from 30 μM to 0.3 μM. Dosing volume was set to 30 μL/knee. Dosing solutions were prepared fresh for each dose. Dosing solutions were verified at the end of the study. The positive control compound FGF-18 stock was reconstituted in 5 mM Tris, pH 8.0 as per manufacturer's instructions. The FGF-18 stock was further diluted in saline to a final concentration of 0.167 mg/mL. Fresh dilutions were prepared twice a week at the time of injection.
Fourteen-week-old male Lewis rats (Charles River, Kingston, N.Y.) were in the weight range of 285-327 g.
Rats were sorted based on body weight into 8 study groups of 15 rats. They were surgerized and enrolled in a staggered fashion across one week (enroll 20 animals per day for 6 days). Animals were anesthetized with a ketamine/xylazine cocktail (50 mg/kg Ketaved—Henry Schein, and 5 mg/kg Xyalzine AniSed, respectively) by intraperitoneal injection, administered appropriate analgesics (Flunixin, 5 mg/kg subcutaneous injection), and the surgical site shaved and disinfected. A small incision was made on the medial right hind knee to expose the collateral ligament. The collateral ligament was transected and the joint capsule opened sufficiently to expose the medial meniscus. The meniscus was transected completely, then the skin incision was closed, and pressure applied to the wound to prevent hematoma development. Animals were allowed to recover on a heated blanket and were returned to their home cages. Sham procedures were carried out in a similar fashion except the medial meniscus was not cut. All surgical procedures were performed aseptically and all procedures were approved by the IACUC. Animals were monitored daily for the following week for postoperative care prior to dosing. Any animals with atypical healing (bruising/hematoma) were removed from the study and replaced with spare animals. Animals were enrolled into the following groups: […]

[2] = in vivo; conditions: male, Crl:CD(SD), rat, 2.1 ug
[3] = system: Human MSCs; assay: Human chondrocyte differentiation assay; type: cell-based; conditions: 7 days; type II collagen, Sox9 and COMP immunostaining
Description: Human MSCs (50,000) were plated into each well of a 96-well plate and cultured overnight. […] The cells were fixed with 10% formalin solution at room temperature for 10 min, and immunostained using antibodies specific for type II collagen (Abcam), Sox9 (Santa Cruz) and cartilage oligomeric matrix protein (COMP, Santa Cruz), and fluorescently labeled secondary antibodies (Li-Cor). The total intensity of the staining was measured using Oddyssey CLx imaging system (Li-Cor). Vehicle (DMSO) was used as control to determine the basal level of chondrocyte differentiation. The result is shown in Table 1 [A: >50% increase in staining intensity compared to vehicle control; B: 30-50% increase in staining intensity compared to vehicle control].

[4] = system: Canine Model of Osteoarthritis; assay: Efficacy of compound A in a canine model of osteoarthritis; type: in vivo, Beagle dogs
Description: The clear solution was then filtered in a 0.45 μm filter prior to intraarticular dose. Dosing solution was prepared fresh on the day of dosing.
Twelve to fifteen-month-old female naïve Beagle dogs were obtained from Marshall BioResouces (North Rose, N.Y.) with a weight range of 5.4 to 9.3 kilograms.
The goal was to sort and ensure that behavioral characteristics were shared among all groups, so that the activity level and use of the joints while not in regimented exercise would be uniform between groups. In addition to sorting by temperament, animals were also sorted by body weights, with equal distribution between study groups. Animals were acclimated to an exercise regimen of 1 hour of walking/running/playing prior to study start.
Animals were food deprived prior to surgery, anesthetized using propofol (6 mg/kg, IV), and maintained on isoflurane (3-4%) in oxygen (2 L/min) for the duration of the procedure (10-15 minutes). The right rear knee was shaved and aseptically prepared. A medial skin incision was made to expose the collateral ligament. A portion of the medial meniscus was cut (a wedge roughly half the width of the medial meniscus was removed). The joint capsule and subcutis were closed with sutures, and skin closed with wound clips. Sham animals were treated in the same manner except for the medial meniscus partial transection. All animals were allowed to recover for 10-11 days prior to dosing. Three days after surgery, all animals began an exercise regimen of one hour of continuous exercise (walking/running/playing), to ensure that the animals were using the surgerized leg and to allow for a more uniform development of lesions across a group of differently tempered dogs.
All animals were exercised 5 days a week for an hour for the duration of the study. At study day 10/11, animals began receiving weekly injections of either compound or vehicle into the surgerized joint. Blood samples were also taken pre-dose for all animals for compound determination. Animals received doses at day 10, 17, 24, 31, 38, and 45 post surgery. All intraarticular doses were standardized to 0.5 mL injections into the joint capsule via injection through the patellar ligament.
On day 52, animals received a terminal blood sample and were euthanized. Plasma samples were used for biomarker determination. Urine and synovial fluid was collected at necropsy, and the knees were harvested for histology and pathology analysis.
Osteoarthritic lesions were scored based on lesion size, depth, severity and changes in subchondral bone and osteophyte formation. Both the femur and the tibia on either side of the meniscal cut were examined. Statistical analysis used Student's two-tailed test or Mann-Whitney U Test (non-parametric).
For terminal plasma samples, biomarker ELISAs were run to quantify levels of PIINP. The kit procedures were followed as per manufacturer's instructions. Data were analyzed with a Student's t-test.

[5] = 0.035 mg/knee IA weekly for 6 weeks, vs vehicle

Which “total joint scores without the femur” value ([1]; 30 μM (0.315 μg/knee) IA once every other week, vs vehicle) does the source give for `COCCc1ccc(NC(=O)c2ccccc2NS(C)(=O)=O)cc1` [Compound A, N-(4-(2-methoxyethyl)phenyl)-2-(methylsulfonamido)benzamide] here?
The value was “significantly improved; also recorded: significant improvement”.

And the “degree of improvement of total joint score compared with positive control” value ([1]; 30 μM dose, FGF-18 5 μg/injection twice a week)?
Its value is “on par with FGF-18”.

What about the adverse effects ([1]; IA once every other week, any of the doses tested (30, 10, 3, 1, 0.3 μM)) of the same compound?
The adverse effects was “no adverse effects”.

What about the Cmax [2] of the same compound?
Its Cmax is 13.8 ng/mL.

And the “Biological Activity (increase in staining intensity compared to vehicle control)” value [3]?
Its value is “A (>50% increase in staining intensity compared to vehicle control)”.

And the “degree of substantial cartilage degeneration in the femur” value [4, 5]?
Its value is “significantly improved; also recorded: significant reduction”.

What about the “level of bone sclerosis” value [4, 5] of the same compound?
Its value is “reduced; also recorded: improved”.

And the “width of total cartilage degeneration (all severities), femur” value [4, 5]?
Its value is “no effect”.

What about the tibial cartilage damage ([4]; effect not statistically significant) of the same compound?
Its tibial cartilage damage is “less severe”.

What about the “circulating PIINP in plasma (ELISA)” value ([4]; terminal samples 1 week post final dose, vs vehicle) of the same compound?
Its value is “significantly elevated”.
